In patent publication US12391733B2, “Stapled intracellular-targeting antimicrobial peptides to treat infection” (priority 2016, dated 2025):
Read-outs that look alike come from different tables or passages of the source. Positions of bridges follow the written chain, without caps; N, C: chain ends. Non-standard residues stand in square brackets, D forms with d. Residues, ends and D or L forms follow the SMILES beside them. R8 = C=CCCCCCC[C@@](C)(N)C(=O)O; S5 = C=CCCC[C@](C)(N)C(=O)O

Assays:
[1] = test system: E. coli; type: cell-based, Escherichia coli; conditions: for Antimicrobial Activity NIC (μg/ml) E. coli: Table 1, microbroth dilution, refined MHB, 20-24 hours at 37° C.
Description: (§1) Antimicrobial Activity Assay The following microbroth dilution protocol was adapted to determine the MIC of each peptide. First, Mueller-Hinton broth (MHB) was passed through an anion exchange column to remove polyanionic species and generate refined MHB. This refined broth was then used in the standard microbroth dilution protocol devised by Hancock et al. for 96 well plates. […] Briefly, bacterial cells were grown overnight in refined MHB at 37° C. and then diluted and allowed to grow again for several hours. Serial dilutions of peptide stocks in water (10 μl) were prepared using clear round-bottom polypropylene 96-well plates. Then 90 μl of bacteria in refined MHB was added to give a final inoculum of 5×10^5 CFU/ml. The plates were then covered with porous tape to reduce evaporation, and incubated for 20-24 hours at 37° C.

[2] = test system: B. cereus; type: cell-based
Description: as §1

[3] = test system: S. Aureus; type: cell-based
Description: as §1

[4] = test system: MRSA; type: cell-based
Description: as §1

[5] = test system: P. aeruginosa; type: cell-based
Description: as §1

[6] = test system: human red blood cells (RBCs); type: cell-based; conditions: for % Hemolysis at 50 μg/ml: red cells of human, 1 h
Description: One of the key obstacles that have long impeded the use of AMPs in systemic infections such as sepsis is their tendency to lyse human cells, such as red blood cells (RBCs). Thus, it is critical to minimize hemolytic activity as much as possible to achieve a therapeutic window. […] Of note, in those circumstances where hydrocarbon staples increase hemolytic activity due to increasing hydrophobicity, the alkene moiety can be modified, e.g., by dihydroxylation, to install hydrophilic residues and potentially mitigate hemolysis.
Hemolytic Activity Assay For the determination of hemolytic activity, the following protocol was applied: human blood samples were centrifuged to isolate red blood cells (RBCs), which were then washed and suspended in phosphate-buffered saline to yield a 1% (v/v) suspension. This suspension was then added to serial dilutions of peptide stocks in water in clear round-bottom polypropylene 96-well plates and the plates incubated for 1 hour at 37° C. After incubation, the plates were centrifuged and the supernatant isolated to determine the amount of hemoglobin released using a spectrophotometer (570 nm). The minimum hemolytic concentration (MHC) was determined by assessing the peptide concentration at which there was less than 1% hemoglobin release.

[7] = circular dichroism; conditions: 10 mM phosphate buffer; pH 7.4; ns °C; 100 uM

Structure (SMILES) | % Hemolysis at 50 μg/ml [6] | helicity [7] | Antimicrobial Activity NIC (μg/ml) E. coli [1] | further results
CC(C)C[C@H](NC(=O)[C@H](CC(C)C)NC(=O)[C@H](CCCNC(=N)N)NC(=O)[C@H](Cc1c[nH]cn1)NC(=O)[C@@H](NC(=O)[C@H](CCCNC(=N)N)NC(=O)CNC(=O)[C@@H](NC(=O)[C@@H]1CCCN1C(=O)[C@H](Cc1c[nH]c2ccccc12)NC(=O)[C@H](CCC(N)=O)NC(=O)[C@H](CC(C)C)NC(=O)[C@]1(C)CCCC=CCCC[C@](C)(NC(=O)[C@H](CCCNC(=N)N)NC(=O)[C@@H](N)[C@@H](C)O)C(=O)N[C@@H](CO)C(=O)N[C@@H](CCCNC(=N)N)C(=O)N[C@@H](C)C(=O)N1)C(C)C)C(C)C)C(=O)N[C@@H](CCCNC(=N)N)C(=O)N[C@@H](CCCCN)C(N)=O [BFStap(i + 4)11] (H-TR[S5]SRA[S5]LQWPVGRVHRLLRK-NH2; staple 3-7) | 3.1% | 8% |  | Antimicrobial Activity MIC (μg/ml) E. coli ([1]; Table 2): 6.25 µg/mL; Antimicrobial Activity MIC (μg/ml) B. cereus ([2]; Table 2): 25 µg/mL; Antimicrobial Activity MIC (μg/ml) S. Aureus ([3]; Table 2): 50 µg/mL; Antimicrobial Activity MIC (μg/ml) MRSA ([4]; Table 2): >50 µg/mL; Antimicrobial Activity MIC (μg/ml) P. aeruginosa ([5]; Table 2): 12.5 µg/mL; hemolytic activity (in words) [6]: low hemolytic activity
CC(C)C[C@H](NC(=O)[C@H](CC(C)C)NC(=O)[C@H](CCCNC(=N)N)NC(=O)[C@H](Cc1c[nH]cn1)NC(=O)[C@@H](NC(=O)[C@]1(C)CCCC=CCCCCCC[C@@](C)(NC(=O)[C@H](C)NC(=O)[C@H](CCCNC(=N)N)NC(=O)[C@H](CO)NC(=O)[C@H](CO)NC(=O)[C@H](CCCNC(=N)N)NC(=O)[C@@H](N)[C@@H](C)O)C(=O)N[C@@H](CC(C)C)C(=O)N[C@@H](CCC(N)=O)C(=O)N[C@@H](Cc2c[nH]c3ccccc23)C(=O)N2CCC[C@H]2C(=O)N[C@@H](C(C)C)C(=O)NCC(=O)N1)C(C)C)C(=O)N[C@@H](CCCNC(=N)N)C(=O)N[C@@H](CCCCN)C(N)=O [BFStap(i + 7)6] (H-TRSSRA[R8]LQWPVG[S5]VHRLLRK-NH2; staple 7-14) | 9.5% | 7.3% |  | Antimicrobial Activity MIC (μg/ml) E. coli [1]: 6.25 µg/mL; Antimicrobial Activity MIC (μg/ml) B. cereus [2]: 12.5 µg/mL; Antimicrobial Activity MIC (μg/ml) S. Aureus [3]: 25 µg/mL; Antimicrobial Activity MIC (μg/ml) MRSA [4]: >50 µg/mL; Antimicrobial Activity MIC (μg/ml) P. aeruginosa [5]: 12.5 µg/mL
CC(C)C[C@@H]1NC(=O)CNC(=O)[C@](C)(NC(=O)[C@H](CCCNC(=N)N)NC(=O)[C@H](CO)NC(=O)[C@H](CO)NC(=O)[C@H](CCCNC(=N)N)NC(=O)[C@@H](N)[C@@H](C)O)CCCCCCC=CCCC[C@@](C)(C(=O)N[C@@H](CCCNC(=N)N)C(=O)N[C@H](C(=O)N[C@@H](Cc2c[nH]cn2)C(=O)N[C@@H](CCCNC(=N)N)C(=O)N[C@@H](CC(C)C)C(=O)N[C@@H](CC(C)C)C(=O)N[C@@H](CCCNC(=N)N)C(=O)N[C@@H](CCCCN)C(N)=O)C(C)C)NC(=O)[C@H](C(C)C)NC(=O)[C@@H]2CCCN2C(=O)[C@H](Cc2c[nH]c3ccccc23)NC(=O)[C@H](CCC(N)=O)NC1=O [BFStap(i + 7)7] (H-TRSSR[R8]GLQWPV[S5]RVHRLLRK-NH2; staple 6-13; N-terminus and C-terminus assumed) | 3.0% | 11.6% | 22.9 µg/mL | 
CC(C)C[C@@H]1NC(=O)CNC(=O)[C@H](C)NC(=O)[C@H](CCCNC(=N)N)NC(=O)[C@H](CO)NC(=O)[C@H](CO)NC(=O)[C@](C)(NC(=O)[C@@H](N)[C@@H](C)O)CCCCCCC=CCCC[C@@](C)(C(=O)N[C@@H](Cc2c[nH]c3ccccc23)C(=O)N2CCC[C@H]2C(=O)N[C@H](C(=O)NCC(=O)N[C@@H](CCCNC(=N)N)C(=O)N[C@H](C(=O)N[C@@H](Cc2c[nH]cn2)C(=O)N[C@@H](CCCNC(=N)N)C(=O)N[C@@H](CC(C)C)C(=O)N[C@@H](CC(C)C)C(=O)N[C@@H](CCCNC(=N)N)C(=O)N[C@@H](CCCCN)C(N)=O)C(C)C)C(C)C)NC1=O [BFStap(i + 7)9] (H-T[R8]SSRAGL[S5]WPVGRVHRLLRK-NH2; staple 2-9; N-terminus and C-terminus assumed) | 4.3% | 0% | 41.7 µg/mL | 
CC(C)C[C@H](NC(=O)[C@H](CC(C)C)NC(=O)[C@H](CCCNC(=N)N)NC(=O)[C@H](Cc1c[nH]cn1)NC(=O)[C@@H](NC(=O)[C@H](CCCNC(=N)N)NC(=O)CNC(=O)[C@@H](NC(=O)[C@@H]1CCCN1C(=O)[C@H](Cc1c[nH]c2ccccc12)NC(=O)[C@H](CCC(N)=O)NC(=O)[C@]1(C)CCCC=CCCCCCC[C@@](C)(N)C(=O)N[C@@H](CCCNC(=N)N)C(=O)N[C@@H](CO)C(=O)N[C@@H](CO)C(=O)N[C@@H](CCCNC(=N)N)C(=O)N[C@@H](C)C(=O)NCC(=O)N1)C(C)C)C(C)C)C(=O)N[C@@H](CCCNC(=N)N)C(=O)N[C@@H](CCCCN)C(N)=O [BFStap(i + 7)10] (H-[R8]RSSRAG[S5]QWPVGRVHRLLRK-NH2; staple 1-8) | 2.3% | 0% | >100 µg/mL | 
